Square brackets hold non-standard residues; d marks the D form. Peptide text beside a SMILES is read from it. 2Thi = N[C@@H](Cc1cccs1)C(=O)O
Key:
bovine α-thrombin = bovine α-thrombin (Bos taurus, UniProt P00735); experiment: Inhibition of thrombin's hydrolytic activity towards chromogenic substrate S2238; format: biochemical; details: bovine α-thrombin 5 nM, 25°C, pH 7.46
Description: In a first instance, the inhibitory constants (Ki) for all peptides were determined using pseudo-first order kinetics. […] Substrate hydrolysis at 25°C, in sodium phosphate buffer pH 7.46, with 0.2 M NaCl and 50 µg/ml bovine serum albumin was monitored in real-time at 405 nm using a thermostated spectrophotometer (Cary), assuring that the hydrolysis of the chromogenic substrate was complete. Each kinetic trace was fitted to a first-order reaction mathematical model (At = A0*e^−kt or At = A0+a*(1−e^−kt)). The Ki was determined from the equation Ki = [I]/(kobs uninhibited/kobs inhibited−1), where kobs is the pseudo-first order rate constant and [I] is the molar inhibitor concentration. For the inhibitors that were structurally characterized, the kinetic parameters of S2238 hydrolysis and the type of inhibition were determined using 5 nM bovine α-thrombin (Sigma) and varying concentrations of both substrate (0–200 µM) and peptide inhibitors (0–50 µM). The data was fitted to a competitive enzyme inhibition model using Prism5 (GraphPad Software) and the built-in nonlinear regression global analysis package to determine the values for Ki, KM and Vmax. The goodness of fit was assessed using the built-in statistical analysis package, which enabled the calculation of R^2 values.

trypsin = biological target: T1, trypsin (Bos taurus, UniProt P00760); experiment: Inhibitory activity towards trypsin (chromogenic substrate BAPNA); format: biochemical; details: for selectivity for thrombin versus trypsin: ratio of Ki values, thrombin vs trypsin; for Ki: trypsin 25 nM, BAPNA 1.84 mM, Ki = IC50/(1+S/KM), competitive mechanism assumed
T1 sequence (P00760 24-246): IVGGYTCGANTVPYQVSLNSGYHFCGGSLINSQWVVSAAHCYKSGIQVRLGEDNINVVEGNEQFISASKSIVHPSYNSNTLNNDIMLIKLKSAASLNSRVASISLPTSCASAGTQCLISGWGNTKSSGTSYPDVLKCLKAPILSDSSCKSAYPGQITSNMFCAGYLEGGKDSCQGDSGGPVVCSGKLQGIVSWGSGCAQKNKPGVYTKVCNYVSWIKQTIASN
Description: (§1) Factor Xa (15 nM; American Diagnostica) or trypsin (25 nM; Sigma) was incubated for 15 min at room temperature with 20–1600 µM of fPrI, fPrC or fPrt in 50 mM Tris-HCl pH 8.0 and 150 mM NaCl (factor Xa) or 50 mM Tris-HCl pH 8.0, 150 mM NaCl and 160 mM CaCl2 prior to substrate addition. The chromogenic substrates were S2222 (Nα-Benzoyl-L-isoleucyl-L-glutamyl-glycyl-L-arginine-4-nitroanilide hydrochloride; American Diagnostica) for factor Xa or BAPNA (Nα-Benzoyl-L-arginine-4-nitroanilide hydrochloride; Sigma) for trypsin. Substrate hydrolysis was monitored at 405 (S2222) or 410 nm (BAPNA) using a thermostated spectrophotometer (Cary). IC50 values were determined using the built in equation provided by Prism5 (GraphPad Software).

α-thrombin = α-thrombin (Bos taurus, UniProt P00735); experiment: Inhibitor resistance to proteolysis by thrombin (ESI mass spectrometry); format: in vitro ADME; details: 20 µM peptide with 20 µM α-thrombin, 24 h, room temperature, pH 7.46, mass spectrometry
Description: After 24 h incubation, aliquots were removed and the reaction was quenched with 0.1% TFA. The samples were analyzed on an ESI spectrometer run in the positive mode. As the expected molecular mass of the tripeptide resulting from the hydrolysis of the D-Arg-P1′ peptide bond is 418.5 Da, spectra were acquired in the 400–1000 Da window.

factor Xa = biological target: T2, factor Xa (Homo sapiens, UniProt P00742); experiment: Inhibitory activity towards factor Xa (chromogenic substrate S2222); format: biochemical; details: for Ki: factor Xa 15 nM, S2222 0.18 mM, Ki = IC50/(1+S/KM), competitive mechanism assumed; for selectivity for thrombin versus factor Xa: ratio of Ki values, thrombin vs factor Xa
T2 construct: Factor Xa (15 nM; American Diagnostica); purchased American Diagnostica
T2 sequence (P00742 235-488 limits assumed): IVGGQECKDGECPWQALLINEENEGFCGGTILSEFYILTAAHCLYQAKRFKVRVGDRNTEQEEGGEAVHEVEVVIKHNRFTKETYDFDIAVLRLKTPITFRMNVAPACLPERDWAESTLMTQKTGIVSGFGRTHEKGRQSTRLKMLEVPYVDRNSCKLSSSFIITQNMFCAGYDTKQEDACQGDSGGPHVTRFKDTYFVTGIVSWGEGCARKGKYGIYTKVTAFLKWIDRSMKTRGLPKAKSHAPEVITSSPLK
T2 sequence (P00742 41-179 partner limits assumed): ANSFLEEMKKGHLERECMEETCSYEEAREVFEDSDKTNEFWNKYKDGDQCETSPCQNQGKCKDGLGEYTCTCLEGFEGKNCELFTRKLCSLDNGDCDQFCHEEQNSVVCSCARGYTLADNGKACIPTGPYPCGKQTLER
Description: as §1

Row | SMILES | Ki (bovine α-thrombin) | other results
1 | N=C(N)NCCC[C@@H](NC(=O)[C@@H]1CCCN1C(=O)[C@H](N)Cc1ccccc1)C(=O)N[C@@H](Cc1cccs1)C(N)=O [Peptide 27, D-Phe-Pro-D-Arg-Thi] (H-[dF]P[dR][2Thi]-NH2) | 8.16 ± 0.35 µM | 
2 | N=C(N)NCCC[C@@H](NC(=O)[C@@H]1CCCN1C(=O)[C@H](N)Cc1ccccc1)C(=O)N[C@@H](CS)C(N)=O [Peptide 19, D-Phe-Pro-D-Arg-Cys] (H-[dF]P[dR]C-NH2) | 16.5 ± 1.5 µM | selectivity for thrombin versus trypsin (trypsin): 20 fold; Ki (trypsin): 377.1 ± 3.6 µM; Stability against thrombin hydrolysis (cleavage product D-Phe-Pro-D-Arg, 418.5 Da) (α-thrombin): could not be identified; Ki (factor Xa): 41.4 ± 2.6 µM; selectivity for thrombin versus factor Xa (factor Xa): 3 fold
3 | N=C(N)NCCC[C@@H](NC(=O)[C@@H]1CCCN1C(=O)[C@H](N)Cc1ccccc1)C(=O)N[C@@H](Cc1c[nH]c2ccccc12)C(N)=O [Peptide 11, D-Phe-Pro-D-Arg-Trp] (H-[dF]P[dR]W-NH2) | 65.6 ± 7.2 µM | 
4 | N=C(N)NCCC[C@@H](NC(=O)[C@@H]1CCCN1C(=O)[C@H](N)Cc1ccccc1)C(=O)NCC(N)=O [Peptide 3, D-Phe-Pro-D-Arg-Gly] (H-[dF]P[dR]G-NH2) | 5.9 ± 0.2 µM | 
5 | N=C(N)NCCC[C@@H](NC(=O)[C@@H]1CCCN1C(=O)[C@H](N)Cc1ccccc1)C(=O)N[C@@H](CCCCN)C(N)=O [Peptide 5, D-Phe-Pro-D-Arg-Lys] (H-[dF]P[dR]K-NH2) | 66.6 ± 6.5 µM | 
6 | N=C(N)NCCC[C@@H](NC(=O)[C@@H]1CCCN1C(=O)[C@H](N)Cc1ccccc1)C(=O)N[C@@H](CCC(=O)O)C(N)=O [Peptide 6, D-Phe-Pro-D-Arg-Glu] (H-[dF]P[dR]E-NH2) | 556 ± 89.6 µM | 
7 | N=C(N)NCCC[C@@H](NC(=O)[C@@H]1CCCN1C(=O)[C@H](N)Cc1ccccc1)C(=O)N[C@H](CS)C(N)=O [Peptide 20, D-Phe-Pro-D-Arg-D-Cys] (H-[dF]P[dR][dC]-NH2) | 2.4 ± 0.05 µM | 
8 | C[C@H](O)[C@@H](NC(=O)[C@@H](CCCNC(=N)N)NC(=O)[C@@H]1CCCN1C(=O)[C@H](N)Cc1ccccc1)C(N)=O [Peptide 16, D-Phe-Pro-D-Arg-D-Thr] (H-[dF]P[dR][dT]-NH2) | 0.92 ± 0.08 µM | selectivity for thrombin versus trypsin (trypsin): 420 fold; Ki (trypsin): 389 ± 5.5 µM; Stability against thrombin hydrolysis (cleavage product D-Phe-Pro-D-Arg, 418.5 Da) (α-thrombin): could not be identified; Ki (factor Xa): 103 ± 1.44 µM; selectivity for thrombin versus factor Xa (factor Xa): 110 fold
9 | C[C@@H](O)[C@H](NC(=O)[C@@H](CCCNC(=N)N)NC(=O)[C@@H]1CCCN1C(=O)[C@H](N)Cc1ccccc1)C(N)=O [Peptide 15, D-Phe-Pro-D-Arg-Thr] (H-[dF]P[dR]T-NH2) | 12.5 ± 0.35 µM | 
10 | CC[C@H](C)[C@H](NC(=O)[C@@H](CCCNC(=N)N)NC(=O)[C@@H]1CCCN1C(=O)[C@H](N)Cc1ccccc1)C(N)=O [Peptide 23, D-Phe-Pro-D-Arg-Ile] (H-[dF]P[dR]I-NH2) | 7.7 ± 0.73 µM | selectivity for thrombin versus trypsin (trypsin): 12 fold; Ki (trypsin): 90.2 ± 2.8 µM; Stability against thrombin hydrolysis (cleavage product D-Phe-Pro-D-Arg, 418.5 Da) (α-thrombin): could not be identified; Ki (factor Xa): 7300 µM
11 | N=C(N)NCCC[C@@H](NC(=O)[C@@H]1CCCN1C(=O)[C@H](N)Cc1ccccc1)C(=O)N[C@H](CCC(N)=O)C(N)=O [Peptide 22, D-Phe-Pro-D-Arg-D-Gln] (H-[dF]P[dR][dQ]-NH2) | 19.3 ± 0.6 µM | 
12 | CSCC[C@H](NC(=O)[C@@H](CCCNC(=N)N)NC(=O)[C@@H]1CCCN1C(=O)[C@H](N)Cc1ccccc1)C(N)=O [Peptide 28, D-Phe-Pro-D-Arg-Met] (H-[dF]P[dR]M-NH2) | 37.2 ± 2.5 µM | 
13 | N=C(N)NCCC[C@@H](NC(=O)[C@@H]1CCCN1C(=O)[C@H](N)Cc1ccccc1)C(=O)N[C@@H](Cc1ccc(O)cc1)C(N)=O [Peptide 12, D-Phe-Pro-D-Arg-Tyr] (H-[dF]P[dR]Y-NH2) | 50.5 ± 3.4 µM | 
14 | N=C(N)NCCC[C@@H](NC(=O)[C@@H]1CCCN1C(=O)[C@H](N)Cc1ccccc1)C(=O)N[C@@H](CCC(N)=O)C(N)=O [Peptide 21, D-Phe-Pro-D-Arg-Gln] (H-[dF]P[dR]Q-NH2) | 43.1 ± 2.6 µM | 
15 | N=C(N)NCCC[C@H](NC(=O)[C@@H](CCCNC(=N)N)NC(=O)[C@@H]1CCCN1C(=O)[C@H](N)Cc1ccccc1)C(N)=O [Peptide 4, D-Phe-Pro-D-Arg-Arg] (H-[dF]P[dR]R-NH2) | 91.1 ± 8.2 µM | 
16 | N=C(N)NCCC[C@@H](NC(=O)[C@@H]1CCCN1C(=O)[C@H](N)Cc1ccccc1)C(=O)N1CCC[C@@H]1C(N)=O [Peptide 10, D-Phe-Pro-D-Arg-D-Pro] (H-[dF]P[dR][dP]-NH2) | 489 ± 113 µM | 
17 | C[C@@H](NC(=O)[C@@H](CCCNC(=N)N)NC(=O)[C@@H]1CCCN1C(=O)[C@H](N)Cc1ccccc1)C(N)=O [Peptide 2, D-Phe-Pro-D-Arg-D-Ala] (H-[dF]P[dR][dA]-NH2) | 2.06 ± 0.04 µM | 
18 | N=C(N)NCCC[C@@H](NC(=O)[C@@H]1CCCN1C(=O)[C@H](N)Cc1ccccc1)C(=O)N[C@@H](Cc1c[nH]cn1)C(N)=O [Peptide 7, D-Phe-Pro-D-Arg-His] (H-[dF]P[dR]H-NH2) | 122 ± 9.5 µM | 
19 | N=C(N)NCCC[C@@H](NC(=O)[C@@H]1CCCN1C(=O)[C@H](N)Cc1ccccc1)C(=O)N[C@H](CO)C(N)=O [Peptide 18, D-Phe-Pro-D-Arg-D-Ser] (H-[dF]P[dR][dS]-NH2) | 12.3 ± 0.08 µM | 
20 | N=C(N)NCCC[C@@H](NC(=O)[C@@H]1CCCN1C(=O)[C@H](N)Cc1ccccc1)C(=O)N[C@@H](Cc1ccccc1)C(N)=O [Peptide 8, D-Phe-Pro-D-Arg-Phe] (H-[dF]P[dR]F-NH2) | 250 ± 20 µM | 
21 | CC(C)[C@@H](NC(=O)[C@@H](CCCNC(=N)N)NC(=O)[C@@H]1CCCN1C(=O)[C@H](N)Cc1ccccc1)C(N)=O [Peptide 14, D-Phe-Pro-D-Arg-D-Val] (H-[dF]P[dR][dV]-NH2) | 2.17 ± 0.6 µM | 
22 | C[C@H](NC(=O)[C@@H](CCCNC(=N)N)NC(=O)[C@@H]1CCCN1C(=O)[C@H](N)Cc1ccccc1)C(N)=O [Peptide 1, D-Phe-Pro-D-Arg-Ala] (H-[dF]P[dR]A-NH2; N-terminus assumed) | 16.6 ± 0.8 µM | 
23 | CC(C)[C@H](NC(=O)[C@@H](CCCNC(=N)N)NC(=O)[C@@H]1CCCN1C(=O)[C@H](N)Cc1ccccc1)C(N)=O [Peptide 13, D-Phe-Pro-D-Arg-Val] (H-[dF]P[dR]V-NH2) | 56.3 ± 1.5 µM | 
24 | CC[C@@H](C)[C@@H](NC(=O)[C@@H](CCCNC(=N)N)NC(=O)[C@@H]1CCCN1C(=O)[C@H](N)Cc1ccccc1)C(N)=O [Peptide 24, D-Phe-Pro-D-Arg-D-Ile] (H-[dF]P[dR][dI]-NH2) | 7.44 ± 0.5 µM | 
25 | N=C(N)NCCC[C@@H](NC(=O)[C@@H]1CCCN1C(=O)[C@H](N)Cc1ccccc1)C(=O)N1CCC[C@H]1C(N)=O [Peptide 9, D-Phe-Pro-D-Arg-Pro] (H-[dF]P[dR]P-NH2) | 89.5 ± 5.5 µM | 
26 | N=C(N)NCCC[C@@H](NC(=O)[C@@H]1CCCN1C(=O)[C@H](N)Cc1ccccc1)C(=O)N[C@@H](CO)C(N)=O [Peptide 17, D-Phe-Pro-D-Arg-Ser] (H-[dF]P[dR]S-NH2) | 17.1 ± 0.8 µM | 
27 | CC(C)C[C@H](NC(=O)[C@@H](CCCNC(=N)N)NC(=O)[C@@H]1CCCN1C(=O)[C@H](N)Cc1ccccc1)C(N)=O [Peptide 25, D-Phe-Pro-D-Arg-Leu] (H-[dF]P[dR]L-NH2) | 20.6 ± 4.5 µM | 
28 | CC(C)C[C@@H](NC(=O)[C@@H](CCCNC(=N)N)NC(=O)[C@@H]1CCCN1C(=O)[C@H](N)Cc1ccccc1)C(N)=O [Peptide 26, D-Phe-Pro-D-Arg-D-Leu] (H-[dF]P[dR][dL]-NH2) | 4.13 ± 0.24 µM | 
